Laboratory results reported in patent US10738009B2, “Pyridone amides as modulators of sodium channels” (VERTEX PHARMACEUTICALS INCORPORATED, priority 2013, dated 2020).

Legend:
[1] = Microsomal stability assay, human liver microsomes (HLM); format: in vitro ADME; settings: human liver microsomes 0.5 mg/mL, 1 uM substrate, 2 mM NADPH, 37° C., vs time zero control
Method: (§1) Microsomal Stability Assay. Compounds were incubated at 37° C. and shaken for 30 minutes in a phosphate buffered solution with either rat or human liver microsomes and the cofactor NADPH. A time zero control was similarly prepared, however with NADPH excluded. The final incubation concentrations were 1 uM substrate (0.2% DMSO), 0.5 mg/mL liver microsome, 2 mM NADPH, and 0.1 M phosphate. Reactions were quenched and proteins precipitated with the addition of 2 volume equivalents of ice cold acetonitrile containing an internal standard. Following a centrifugation step, aliquots from the quenched incubations were further diluted with 4 volume equivalents of a 50% aqueous methanol solution and then subjected to LC/MS/MS analysis for quantitation of parent compound. Microsome stability values were calculated as the percent of substrate remaining after 30 minutes referenced against the time zero control.
(§2) Microsomal stability in rat and human liver microsomes were determined for selected compounds of the present invention using the above assay. Table 4 provides the human liver microsomes (“HLM”) and rat liver microsomes (“RLM”) stability data as the percent of compound remaining after 30 minutes referenced against the time zero control.

[2] = Microsomal stability assay, rat liver microsomes (RLM); format: in vitro ADME; settings: rat liver microsomes 0.5 mg/mL, 1 uM substrate, 2 mM NADPH, 37° C., vs time zero control
Method: as §1, §2

Row | HLM (% remaining @ 30 minutes) [1] [%] | RLM (% remaining @ 30 minutes) [2] [%] | SMILES
1 | 79 | 70 | Cc1ccccc1Oc1ccc(C(F)(F)F)cc1C(=O)Nc1cc[nH]c(=O)c1 [Compound 28, N-(2-oxo-1,2-dihydropyridin-4-yl)-2-(o-tolyloxy)-5-(trifluoromethyl)benzamide]
2 | 97 | 93 | O=C(Nc1cc[nH]c(=O)c1)c1cc(C(F)(F)F)ccc1Oc1ccccc1OC(F)F [Compound 76, 2-(2-(difluoromethoxy)phenoxy)-N-(2-oxo-1,2-dihydropyridin-4-yl)-5-(trifluoromethyl)benzamide]
3 | 91 | 90 | COc1cc(F)ccc1Oc1cc(C(F)(F)C(F)(F)F)ccc1C(=O)Nc1cc[nH]c(=O)c1 [Compound 111, 2-(4-fluoro-2-methoxyphenoxy)-N-(2-oxo-1,2-dihydropyridin-4-yl)-4-(perfluoroethyl)benzamide]
4 | 93 | 82 | Cc1cc(F)ccc1Oc1cc(C(F)(F)F)ccc1C(=O)Nc1cc[nH]c(=O)c1 [Compound 10, 2-(4-fluoro-2-methylphenoxy)-N-(2-oxo-1,2-dihydropyridin-4-yl)-4-(trifluoromethyl)benzamide]
5 | 100 | – | O=C(Nc1cc[nH]c(=O)c1)c1cc(C(F)(F)F)ccc1Oc1ccc(F)cc1 [Compound 2, 2-(4-fluorophenoxy)-N-(2-oxo-1,2-dihydropyridin-4-yl)-5-(trifluoromethyl)benzamide]
6 | 92 | 91 | Cc1cc(F)ccc1Oc1ccc(C(F)(F)F)cc1C(=O)Nc1cc[nH]c(=O)c1 [Compound 31, 2-(4-fluoro-2-methylphenoxy)-N-(2-oxo-1,2-dihydropyridin-4-yl)-5-(trifluoromethyl)benzamide]
7 | 97 | 99 | O=C(Nc1cc[nH]c(=O)c1)c1ccc(C(F)(F)F)cc1Oc1ccc(F)cc1F [Compound 7, 2-(2,4-difluorophenoxy)-N-(2-oxo-1,2-dihydropyridin-4-yl)-4-(trifluoromethyl)benzamide]
8 | 76 | 78 | COc1cc(F)ccc1Oc1ccc(C(F)(F)F)cc1C(=O)Nc1cc[nH]c(=O)c1 [Compound 30, 2-(4-fluoro-2-methoxyphenoxy)-N-(2-oxo-1,2-dihydropyridin-4-yl)-5-(trifluoromethyl)benzamide]

The next lines start with the molecule.

Row | SMILES | HLM (% remaining @ 30 minutes) [1] [%] | RLM (% remaining @ 30 minutes) [2] [%]
9 | O=C(Nc1cc[nH]c(=O)c1)c1cc(OC(F)(F)F)ccc1Oc1ccc(F)cc1F [Compound 33, 2-(2,4-difluorophenoxy)-N-(2-oxo-1,2-dihydropyridin-4-yl)-5-(trifluoromethoxy)benzamide] | 100 | 110
10 | O=C(Nc1cc[nH]c(=O)c1)c1ccc(C(F)(F)F)cc1Oc1ccc(OC(F)F)cc1 [Compound 82, 2-(4-(difluoromethoxy)phenoxy)-N-(2-oxo-1,2-dihydropyridin-4-yl)-4-(trifluoromethyl)benzamide] | – | 98
11 | Cc1cc(F)ccc1Oc1ccc(Cl)cc1C(=O)Nc1cc[nH]c(=O)c1 [Compound 68, 5-chloro-2-(4-fluoro-2-methylphenoxy)-N-(2-oxo-1,2-dihydropyridin-4-yl)benzamide] | 98 | 72
12 | O=C(Nc1cc[nH]c(=O)c1)c1cc(OC(F)(F)F)ccc1Oc1ccc(F)cc1Cl [Compound 37, 2-(2-chloro-4-fluorophenoxy)-N-(2-oxo-1,2-dihydropyridin-4-yl)-5-(trifluoromethoxy)benzamide] | 100 | 97
13 | Cc1cc(F)ccc1Oc1cc(Cl)ccc1C(=O)Nc1cc[nH]c(=O)c1 [Compound 20, 4-chloro-2-(4-fluoro-2-methylphenoxy)-N-(2-oxo-1,2-dihydropyridin-4-yl)benzamide] | – | 88
14 | CCOc1ccc(Oc2ccc(C(F)(F)F)cc2C(=O)Nc2cc[nH]c(=O)c2)cc1 [Compound 44, 2-(4-ethoxyphenoxy)-N-(2-oxo-1,2-dihydropyridin-4-yl)-5-(trifluoromethyl)benzamide] | 93 | 84
15 | O=C(Nc1cc[nH]c(=O)c1)c1cc(Cl)ccc1Oc1ccc(F)cc1Cl [Compound 66, 5-chloro-2-(2-chloro-4-fluorophenoxy)-N-(2-oxo-1,2-dihydropyridin-4-yl)benzamide] | 100 | –
16 | O=C(Nc1cc[nH]c(=O)c1)c1cc(C(F)(F)F)ccc1Oc1ccc(OC(F)(F)F)cc1 [Compound 72, N-(2-oxo-1,2-dihydropyridin-4-yl)-2-(4-(trifluoromethoxy)phenoxy)-5-(trifluoromethyl)benzamide] | 100 | –
17 | O=C(Nc1cc[nH]c(=O)c1)c1cc(C(F)(F)F)ccc1Oc1ccccc1OC(F)(F)F [Compound 75, N-(2-oxo-1,2-dihydropyridin-4-yl)-2-(2-(trifluoromethoxy)phenoxy)-5-(trifluoromethyl)benzamide] | 90 | 95
18 | O=C(Nc1cc[nH]c(=O)c1)c1c(Oc2ccc(F)cc2F)cc(C(F)(F)F)cc1C(F)(F)F [Compound 152, 2-(2,4-difluorophenoxy)-N-(2-oxo-1,2-dihydropyridin-4-yl)-4,6-bis(trifluoromethyl)benzamide] | – | 100
19 | CC(C)(C)c1ccc(C(=O)Nc2ccc(=O)[nH]c2)c(Oc2ccc(C(F)(F)F)nc2)c1 [Compound 142, 4-(tert-butyl)-N-(6-oxo-1,6-dihydropyridin-3-yl)-2-((6-(trifluoromethyl)pyridin-3-yl)oxy)benzamide] | 38 | 50
20 | COc1cc(F)ccc1Oc1cc(Cl)c(Cl)cc1C(=O)Nc1cc[nH]c(=O)c1 [Compound 114, 4,5-dichloro-2-(4-fluoro-2-methoxyphenoxy)-N-(2-oxo-1,2-dihydropyridin-4-yl)benzamide] | 91 | 82
21 | O=C(Nc1cc[nH]c(=O)c1)c1cc(F)ccc1Oc1ccc(OC(F)(F)F)cc1 [Compound 101, 5-fluoro-N-(2-oxo-1,2-dihydropyridin-4-yl)-2-(4-(trifluoromethoxy)phenoxy)benzamide] | 97 | 89
22 | O=C(Nc1cc[nH]c(=O)c1)c1ccc(C(F)(F)F)cc1Oc1ccc(OC(F)(F)F)cc1 [Compound 79, N-(2-oxo-1,2-dihydropyridin-4-yl)-2-(4-(trifluoromethoxy)phenoxy)-4-(trifluoromethyl)benzamide] | – | 100
23 | O=C(Nc1cc[nH]c(=O)c1)c1ccc(C(F)(F)F)cc1OCC1CCCC1 [Compound 120, 2-(cyclopentylmethoxy)-N-(2-oxo-1,2-dihydropyridin-4-yl)-4-(trifluoromethyl)benzamide] | 87 | 79
24 | O=C(Nc1cc[nH]c(=O)c1)c1ccc(C(F)(F)C(F)(F)F)cc1Oc1ccc(F)cc1 [Compound 88, 2-(4-fluorophenoxy)-N-(2-oxo-1,2-dihydropyridin-4-yl)-4-(perfluoroethyl)benzamide] | 100 | –
25 | O=C(Nc1cc[nH]c(=O)c1)c1ccc(C(F)(F)F)cc1OCCCC(F)(F)F [Compound 123, N-(2-oxo-1,2-dihydropyridin-4-yl)-2-(4,4,4-trifluorobutoxy)-4-(trifluoromethyl)benzamide] | – | 98
26 | COCCOc1ccc(Oc2cc(C(F)(F)F)ccc2C(=O)Nc2cc[nH]c(=O)c2)cc1 [Compound 8, 2-(4-(2-methoxyethoxy)phenoxy)-N-(2-oxo-1,2-dihydropyridin-4-yl)-4-(trifluoromethyl)benzamide] | 90 | 86
27 | O=C(Nc1cc[nH]c(=O)c1)c1cc(F)c(Cl)cc1Oc1ccc(F)cc1Cl [Compound 109, 4-chloro-2-(2-chloro-4-fluorophenoxy)-5-fluoro-N-(2-oxo-1,2-dihydropyridin-4-yl)benzamide] | – | 100
28 | COc1ccc(Oc2cc(Cl)c(Cl)cc2C(=O)Nc2cc[nH]c(=O)c2)cc1F [Compound 115, 4,5-dichloro-2-(3-fluoro-4-methoxyphenoxy)-N-(2-oxo-1,2-dihydropyridin-4-yl)benzamide] | – | 95
